Key:
[1] = 101.33 kPa, Liquid; for viscosity: Capillary tube (Ostwald / Ubbelohde) method; for mass density: Vibrating tube method
[2] = refractive index (Na D-line) (dimensionless); conditions: 101.33 kPa, Liquid, Standard Abbe refractometry
[3] = mn = molality of the nth substance listed, in mol/kg; conditions: 101 kPa, Liquid, Vibrating tube method

COS(=O)(=O)[O-].Cn1cc[n+](C)c1 [1,3-dimethylimidazolium methylsulfate]
Conditions | mass density, [1] [kg/m3] | refractive index, [2] | viscosity, [1] [mPa·s]
298.15 K | 1341.52 | 1.481 | 72.16
308.15 K | 1334.05 | 1.4782 | 54.42
318.15 K | 1324.8 | 1.475 | 31.75
328.15 K | 1320.61 | 1.4732 | 22.75

COS(=O)(=O)[O-].Cn1cc[n+](C)c1 [1,3-dimethylimidazolium methylsulfate] + CC#N
mass density [kg/m3], [3]
Conditions | 298.15 K | 308.15 K | 318.15 K | 328.15 K
m1 = 0.0154 | 778.02 | 767.2 | 756.08 | 745.07
m1 = 0.0262 | 778.92 | 768.15 | 757.02 | 746.08
m1 = 0.0367 | 779.78 | 769.04 | 757.94 | 746.91
m1 = 0.0442 | 780.39 | 769.64 | 758.56 | 747.53
m1 = 0.0552 | 781.25 | 770.6 | 759.47 | 748.49
m1 = 0.0697 | 782.39 | 771.79 | 760.65 | 749.74
m1 = 0.1092 | 785.54 | 775.06 | 763.89 | 753.13
m1 = 0.1516 | 788.85 | 778.45 | 767.29 | 756.65
m1 = 0.2159 | 793.88 | 783.51 | 772.5 | 761.83
m1 = 0.2981 | 799.99 | 789.92 | 779.03 | 768.5
m1 = 0.4347 | 809.98 | 799.82 | 788.98 | 778.24
m1 = 0.5442 | 817.8 | 807.73 | 797.07 | 786.34
m1 = 0.8609 | 839.07 | 828.64 | 818.22 | 808.33

COS(=O)(=O)[O-].Cn1cc[n+](C)c1 [1,3-dimethylimidazolium methylsulfate] + CN(C)C=O
mass density [kg/m3], [3]
Conditions | 298.15 K | 308.15 K | 318.15 K | 328.15 K
m1 = 0.0143 | 945.09 | 935.57 | 925.94 | 916.21
m1 = 0.0192 | 945.45 | 935.93 | 926.32 | 916.62
m1 = 0.0305 | 946.29 | 936.8 | 927.22 | 917.63
m1 = 0.0455 | 947.35 | 937.9 | 928.37 | 918.8
m1 = 0.06 | 948.34 | 938.95 | 929.46 | 919.9
m1 = 0.0821 | 949.86 | 940.49 | 930.98 | 921.44
m1 = 0.1125 | 951.98 | 942.64 | 933.15 | 923.55
m1 = 0.1679 | 955.78 | 946.48 | 937.03 | 927.44
m1 = 0.2459 | 961 | 951.8 | 942.42 | 932.69
m1 = 0.3069 | 964.96 | 955.78 | 946.45 | 936.8
m1 = 0.6259 | 984.18 | 975.15 | 965.75 | 956.63

COS(=O)(=O)[O-].Cn1cc[n+](C)c1 [1,3-dimethylimidazolium methylsulfate] + CO
mass density [kg/m3], [3]
Conditions | 298.15 K | 308.15 K | 318.15 K | 328.15 K
m1 = 0.0108 | 787.65 | 778.14 | 768.55 | 758.82
m1 = 0.0199 | 788.47 | 778.98 | 769.42 | 759.7
m1 = 0.0341 | 789.69 | 780.24 | 770.71 | 761.02
m1 = 0.0419 | 790.3 | 780.9 | 771.38 | 761.68
m1 = 0.0531 | 791.11 | 781.85 | 772.32 | 762.63
m1 = 0.0711 | 792.35 | 783.26 | 773.6 | 764.11
m1 = 0.0929 | 794.09 | 784.9 | 775.34 | 765.65
m1 = 0.1212 | 796.29 | 787.16 | 777.61 | 767.99
m1 = 0.1679 | 799.9 | 790.82 | 781.31 | 771.8
m1 = 0.2084 | 802.98 | 793.97 | 784.46 | 775.01
m1 = 0.2504 | 806.12 | 797.15 | 787.7 | 778.32
m1 = 0.2973 | 809.59 | 800.65 | 791.16 | 781.85
m1 = 0.3949 | 816.69 | 807.86 | 798.36 | 789.21
m1 = 0.4965 | 823.95 | 815.03 | 805.55 | 796.68
m1 = 0.5976 | 831 | 822.1 | 812.65 | 803.73
m1 = 0.7303 | 839.93 | 830.93 | 821.45 | 812.4
m1 = 0.9907 | 856.57 | 847.45 | 838.09 | 828.74

COS(=O)(=O)[O-].Cn1cc[n+](C)c1 [1,3-dimethylimidazolium methylsulfate] + C[S+](C)[O-]
mass density [kg/m3], [3]
Conditions | 298.15 K | 308.15 K | 318.15 K | 328.15 K
m1 = 0.0129 | 1095.83 | 1085.98 | 1075.96 | 1065.92
m1 = 0.0148 | 1095.95 | 1086.09 | 1076.07 | 1066.03
m1 = 0.0289 | 1096.8 | 1086.89 | 1076.88 | 1066.84
m1 = 0.0374 | 1097.18 | 1087.35 | 1077.34 | 1067.32
m1 = 0.0433 | 1097.5 | 1087.65 | 1077.66 | 1067.64
m1 = 0.0517 | 1097.95 | 1088.1 | 1078.12 | 1068.11
m1 = 0.0632 | 1098.58 | 1088.71 | 1078.72 | 1068.74
m1 = 0.0897 | 1100 | 1090.12 | 1080.15 | 1070.19
m1 = 0.1221 | 1101.67 | 1091.81 | 1081.86 | 1071.93
m1 = 0.1501 | 1103.05 | 1093.21 | 1083.28 | 1073.4
m1 = 0.1878 | 1104.92 | 1095.1 | 1085.22 | 1075.36
m1 = 0.2351 | 1107.24 | 1097.42 | 1087.6 | 1077.78
m1 = 0.2852 | 1109.64 | 1099.85 | 1090.06 | 1080.29
m1 = 0.3822 | 1114 | 1104.38 | 1094.63 | 1084.97
m1 = 0.5216 | 1120.2 | 1110.59 | 1100.91 | 1091.34
m1 = 0.8153 | 1132.05 | 1122.58 | 1113.1 | 1103.75

CC#N [acetonitrile]
Conditions | mass density, [1] [kg/m3] | refractive index, [2] | viscosity, [1] [mPa·s]
298.15 K | 776.59 | 1.3411 | 0.3431
308.15 K | 765.76 | 1.3365 | 0.3171
318.15 K | 754.67 | 1.3327 | 0.2918
328.15 K | 743.6 | 1.3259 | 0.268

C[S+](C)[O-] [dimethyl sulfoxide]
Conditions | mass density, [1] [kg/m3] | refractive index, [2] | viscosity, [1] [mPa·s]
298.15 K | 1095.27 | 1.4737 | 1.979
308.15 K | 1085.18 | 1.4701 | 1.622
318.15 K | 1075.24 | 1.4668 | 1.381
328.15 K | 1065.16 | 1.462 | 1.207

CN(C)C=O [dimethylformamide]
Conditions | mass density, [1] [kg/m3] | refractive index, [2] | viscosity, [1] [mPa·s]
298.15 K | 943.8 | 1.4267 | 0.8605
308.15 K | 934.45 | 1.4225 | 0.7712
318.15 K | 924.75 | 1.418 | 0.6975
328.15 K | 914.9 | 1.4144 | 0.6374

CO [methanol]
Conditions | mass density, 298.15 K [kg/m3] | mass density, 308.15 K [kg/m3] | mass density, 318.15 K [kg/m3] | mass density, 328.15 K [kg/m3] | refractive index, 298.15 K | refractive index, 308.15 K | refractive index, 318.15 K | refractive index, 328.15 K | viscosity, 318.15 K [mPa·s] | viscosity, 328.15 K [mPa·s]
[1] | 786.53 | 777.09 | 767.48 | 757.75 | – | – | – | – | 0.5962 | 0.4792
[2] | – | – | – | – | 1.3272 | 1.3232 | 1.3185 | 1.3158 | – | –

O [water]
Conditions | mass density, 328.15 K [kg/m3] | refractive index, 298.15 K | refractive index, 308.15 K | refractive index, 318.15 K | refractive index, 328.15 K | viscosity, 298.15 K [mPa·s] | viscosity, 308.15 K [mPa·s] | viscosity, 318.15 K [mPa·s] | viscosity, 328.15 K [mPa·s]
[1] | 985.62 | – | – | – | – | 0.8949 | 0.7207 | 0.5962 | 0.5042
[2] | – | 1.3325 | 1.3313 | 1.3298 | 1.3282 | – | – | – | –

From the NIST ThermoML archive (doi:10.1016/j.fluid.2010.01.002)
